# Earlier results, collected in patent US20110313040A1, “ORGANIC NUTRIENT SALTS, METHODS OF PREPARATION AND USES” (BELLUS HEALTH INC., priority 2008, published 2011).
# Conditions: in vivo
smiles,measurement,value
NCCCS(=O)(=O)[O-].[Na+] [sodium salt of homotaurine],stomach and gastrointestinal tolerance,"caused stomach and gastrointestinal intolerance (e.g. nausea, vomiting)"
